Entries after “also recorded” stand apart in the source; their conditions may differ.

For one series, the target named is MCP-1 (Homo sapiens, UniProt P13500). The note with it: Yokochi (2001); Yamada (2004); cited from earlier work.
A further series deals with monocytes. The following applies: Yokochi (2001); Yamada (2004); cited from earlier work.
Series [1] in a line: In Use stability study: repagermanium IR capsules reconstituted in water in a medical pot, with or without nasogastric tube (assay, appearance, pH). The following applies: reconstituted in 15 ml water in a medical pot, up to 3 h (180 minutes). It counts as physicochemical. As for the experimental part: An In Use stability study was performed to determine the reconstitution and dosage information for administration of repagermanium IR capsules via nasogastric feeding tube. The objective of the study was to: • 1. measure the stability of the repagermanium drug product composition once reconstituted in water for administration via a gastric tube, • 2. determine if there is any residual repagermanium remaining in the medicine pot after the first 15 mL solution has been removed, and • 3. identify if additional flushing of the nasogastric tube will be required to deliver the correct dose of repagermanium. There were 6 experiments in total. Each experiment was performed in duplicate (except for micro tests). [table]

Chain of MCP-1 (P13500 24-99, species assumed): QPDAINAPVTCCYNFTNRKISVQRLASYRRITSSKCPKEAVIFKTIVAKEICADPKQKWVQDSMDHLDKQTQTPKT

With `O=C(O)C[CH2][Ge](=[O])[O][Ge](=[O])[CH2]CC(=O)O` [Propagermanium, 3-[(2-carboxyethyl-oxogermyl)oxy-oxogermyl] propanoic acid], the “inhibition of MCP-1 binding” value at MCP-1 is recorded as “does not inhibit MCP-1 binding”. In the series with monocytes, the “inhibition of in vitro chemotactic migration of monocytes by MCP-1” value is given as “specifically inhibit in vitro chemotactic migration of monocytes by MCP-1; also recorded: inhibits in-vitro chemotactic migration of monocytes by MCP-1”.
Regarding `O=C(O)C[CH2][Ge](=[O])[O][Ge](=[O])[CH2]CC(=O)O` [repagermanium, 3-[(2-carboxyethyl-oxogermyl)oxy-oxogermyl] propanoic acid], the “chemical and microbiological stability after reconstitution” value in series [1] is “chemically and microbiologically stable”.

Source of the values: US20250049840A1, “COMPOSITIONS COMPRISING A CHEMOKINE RECEPTOR PATHWAY INHIBITOR” (DIMERIX BIOSCIENCE PTY LTD, priority 2022, published 2025).
